Test results taken from the NIST ThermoML archive (doi:10.1016/j.tca.2014.03.038).

Columns and labels:
[1] = 101.33 kPa, Liquid; for mass density: Pycnometric method; for speed of sound: multifrequency ultrasonic interferometer
[2] = xn = mol fraction of the nth substance listed; settings: 101 kPa, Liquid; for mass density: Pycnometric method; for speed of sound: multifrequency ultrasonic interferometer

CN(C)CCO [2-(N,N-dimethylamino)ethanol]
[1]
Settings	mass density [kg/m3]	speed of sound [m/s]
298.15 K	883.34	1344.4
308.15 K	874.99	1309.1
318.15 K	866.37	1274.1

CN(C)CCO [2-(N,N-dimethylamino)ethanol] + CCO
[2]
Settings	mass density, 298.15 K [kg/m3]	mass density, 308.15 K [kg/m3]	mass density, 318.15 K [kg/m3]	speed of sound, 298.15 K [m/s]	speed of sound, 308.15 K [m/s]	speed of sound, 318.15 K [m/s]
x1 = 0.0929	803.31	795.34	787.23	1172.7	1141.5	1109.4
x1 = 0.1972	820.2	812.45	804.46	1206.4	1176.1	1144.1
x1 = 0.3005	834.5	826.62	818.61	1236.8	1207.1	1176.3
x1 = 0.4012	846.38	838.41	830.22	1264.9	1234.4	1205.1
x1 = 0.5051	856.62	848.64	840.29	1290.4	1259.8	1231.3
x1 = 0.6098	864.64	856.77	848.47	1309.3	1279.1	1251
x1 = 0.7086	871.01	863.28	854.97	1321	1292	1264.2
x1 = 0.8031	875.81	868.08	859.92	1329.8	1300.4	1271.8
x1 = 0.9036	879.78	871.92	863.76	1336.4	1304.5	1273.3
x1 = 1	883.34	874.99	866.37	1344.4	1309.1	1274.1
